This is an account of results in patent US7452869B2, “NIP3 family of proteins” (University of Manitoba, priority 2000, dated 2008).

Data set [1] deals with primary hippocampal neurons. The experiment in a line: primary hippocampal neurons transfected with BNIP3 plasmids, DNA condensation and survival. It counts as cell-based, rat. To be noted: for BNIP3-positive neurons showing DNA condensation / DNA damage: transiently transfected hippocampal neurons. The method, then:
Transfection of cells was performed on day four in culture with LipofectAMINE 2000 […] according to manufacturer's protocol. Cells were transfected with a pcDNA3-BNIP3 plasmid encoding the full length of BNIP3 and a pcDNA3-BNIP3-163 plasmid that encodes a truncated form (the first 163 amino acids) of BNIP3 that lacks the functional transmembrane domain. Cells were used after 9 days in culture for excitotoxicity experiments. Neuronal cell death was assessed using trypan blue exclusion, morphological changes, and Hoescht 33342 staining. Morphological characteristics were examined on a Nikon Eclipse TE200 microscope and fluorescence was examined on a Zeiss Axioskop 2.
In vitro cell death was estimated using trypan blue exclusion. Cells were incubated in 0.4% trypan blue solution for 30 minutes and then counted on a bright-field microscope. Nonviable cells were distinguished by their dark blue staining. To examine nuclear morphology, nuclear DNA was stained with Hoescht 33342. DNA fragmentation was detected by TUNEL using an in situ cell death detection kit with fluorescein. Statistical analyses were by ANOVA with Tukey's post-test.

Data set [2] has as its system PT pore. The experiment in a line: mitochondrial Dcm (DiOC6), ROS production (HE) and PI staining by flow cytometry in BNIP3-transfected 293T cells. It is filed as cell-based. Conditions: 293T cells. The method, then:
Changes in mitochondrial function were determined by incubating 10 6 293T cells, transiently transfected via the CaP04 method, with either 1 mM JC-1, 40 nM DiOC6, or 2 mM dihydroethidium (HE) (all from Molecular Probes, Inc.) for 30 minutes at 37° C. in Hanks' balanced salt solution (Gibco-BRL). Cells were scored using a FACScalibur flow cytometer (Becton-Dickinson, San Jose, Calif.), and data were analyzed on Celiquest software, version 3.1 (Becton-Dickinson). Controls were performed in the presence or absence of […] mClCCP (Sigma) or an excess of 30% H2 02. For inhibition experiments, cyclosporin A (Sigma) or bongkrekic acid (a gift from J. A. Duine, Delft University, Delft, The Netherlands) was added 2 hours prior to transfection. All cells were harvested 8 hours after transfection and stained with 40 nM DiOC6, 2 mM HE, or 1 mg of propidium iodide (PI) (Sigma) per ml. In all cases, samples were gated to exclude cellular debris.
On the technique in general: In flow cytometry, cells or beads pass a laser one at a time.

The target of data set [3] is T1, BNIP3 (Homo sapiens, UniProt Q12983).
T1 construct: a pcDNA3-BNIP3 plasmid encoding the full length of BNIP3; expressed in transfected cells
The experiment in a line: BNIP3 induced cell death by exclusion of propidium iodide, co-transfection of BNIP3 DTM plasmid (FIG. 13). It is filed as cell-based. Conditions: 1.0 to 1.0 μg plasmid ratio BNIP3 DTM to BNIP3. The method, then: Increasing concentrations of BNIP3 DTM plasmid (0.25 to 1.0 μg) were added to a constant amount of BNIP3 (1.0 μg). Cell death was determined by exclusion of propidium iodide. […] The BNIP3 DTM mutant contains amino acids 1-163, which is a deletion of the C-terminus of the protein that contains the transmembrane domain.

The test system of data set [4] is caspase 3-like proteases. Nature of the data set: caspase activation, colorigenic cleavage of Ac-DEVD-pNA by lysates of transfected 293T cells. It is filed as biochemical. Conditions: 293T lysates harvested 1 to 36 hours posttransfection, versus untransfected controls. The method, then: Lysates were collected from 293T cells, transiently transfected via the CaP04 method (Ray, R., et al., 1999), at the indicated times. Aliquots of these lysates were run under Laemmli sodium dodecyl sulfate-polyacrylamide gel electrophoresis (SDS-PAGE) conditions and immunoblotted with mouse monoclonal anti-PARP. Results were visualized with an enhanced chemiluminescence system (Amersham Pharmacia Biotech, Amersham, U. K.). Transfected 293T cells were also assayed for caspase cleavage via colorigenic cleavage of the peptide Ac-DEVD-pNA (Biomol, Plymouth Meeting, Pa.), according to the conditions outlined by Quignon et al. (Scaffidi, C., et al., 1998), using 100 mM peptide. Where appropriate, samples were preincubated with 500 nM Ac-DEVD-fmk for 30 minutes at room temperature. Data were acquired on a Multiskan MCC/340 (Titertek) plate reader at 405 nm.

Data set [5] concerns MCF-7 cells. The experiment in a line: cytochrome c release by indirect immunofluorescence, MCF-7. It is filed as cell-based. Here is the method:
(§1) Mitochondria were isolated from CaP04-transfected 293T cells using 70 strokes (tight pestle) in a 1-ml Dounce homogenizer (Wheaton) in […] of CFS buffer as previously described (Thornberry, N. A., et al., 1998). Mitochondria were resuspended in H buffer (Thornberry, N. A., et al., 1998). Aliquots of […] of protein were analyzed on Laemmli SDS-15% PAGE gels and immunoblotted with anticytochrome c monoclonal antibody. Equal loading was ensured by probing the same blot with monoclonal antiactin. Results were visualized with enhanced chemiluminescence. Cytochrome c release was also determined via indirect immunofluorescence of transfected MCF-7 and 293T cells. Briefly, cells grown on coverslips were costained with Cy3-conjugated mouse anti-cytochrome c monoclonal antibody and an appropriate tag (HA for BNIP3 and FLAG for tBID), which was visualized with FITC-conjugated goat anti-rabbit IgG. Cells were also stained with Hoechst dye to determine apoptotic nuclear morphology. No fewer than 200 cells were scored for each sample. Fluorescence was visualized and captured using a Zeiss axiophot microscope equipped with a cooled charge-coupled device camera.

The test system of data set [6] is 293T cells. The experiment in a line: cytochrome c release by indirect immunofluorescence, 293T. It is filed as cell-based. Here is the method:
as §1

The test system of data set [7] is ventricular myocytes. The experiment in a line: cell viability of ventricular myocytes, calcein acetoxymethyl ester / ethidium homodimer-1. To be noted: cells expressing BNIP3ΔTM. It is filed as cell-based. Here is the method:
Ventricular myocytes were isolated from 1- to 2-day-old Sprague-Dawley rats (University of Manitoba, Winnipeg, Canada) and submitted to primary culture as reported (Kirshenbaum and Schneider, 1995). Myocytes were subjected to hypoxia for 24 hours in an air-tight chamber continually gassed with 95% N2-5% CO2, as previously reported (Moissac et al., 2000; Long et al., 1997; Tanaka et al., 1994). Adult rat hearts (n=3) were excised from adult rats (250 to 300 g) and subjected to global hypoxia for 1 hour on a modified Langendorff perfusion system with buffer continually gassed with 95% N2-5% CO2, as previously reported (Kirshenbaum, 1993). Heart failure was induced in rats by surgical ligation of the left anterior descending coronary artery, as previously reported (Dixon et al., 1992). Non-failing sham control hearts and those with heart failure were excised from animals 8 weeks after myocardial infarction. Hearts (n=3) were dissected to remove the infarcted scar tissue, and the left ventricular free wall was homogenized and analyzed by Western blot for BNIP3 expression. Animals were handled according to guidelines established by the University of Manitoba and Canadian Council on Animal Care.
The cDNAs for BNIP3 full-length (BNIP3) and carboxyl terminal transmembrane domain deletion mutant (BNIP3ΔTM) have been described previously (Vande et al., 2000). Recombinant adenoviruses encoding the full-length BNIP3 or transmembrane deletion mutant are designated AdBNIP3 or AdBNIP3ΔTM, respectively, and generated as reported previously (Kirshenbaum et al., 1993).
Cell viability was determined using the vital dyes 2 μmol/L calcein acetoxymethyl ester (green) to determine the number of living cells and 2 μmol/L ethidium homodimer-1 (red) (Molecular Probes) to identify the number of dead cells (Kirshenbaum and Schneider, 1995). The number of green cells versus red cells was used to determine changes in cell viability (Moissac et al., 2000). Cells were analyzed from at least n=3 independent myocyte isolations counting ≧200 cells for each condition tested. Data are expressed as mean±SE percent reduction from control.

The target of data set [8] is T2, endogenous BNIP3 (Rattus norvegicus, UniProt A0ACM8Q210).
T2 construct: endogenous in cells; host or cells: neonatal rat ventricular myocytes, with or without adenovirus AdBNIP3ΔTM
Nature of the data set: alkali extraction of mitochondria of hypoxic ventricular myocytes, BNIP3 western blot. It counts as cell-based. The text has this:
For detection of BNIP3 protein, total cardiac cell lysate was subjected to Western blot analysis using a murine antibody directed toward BNIP3 (Vande et al., 2000). To isolate mitochondria from ventricular myocytes, cells were washed in HIM buffer (200 mmol/L mannitol, 70 mmol/L sucrose, 10 mmol/L HEPES-KOH, 1 mmol/L EGTA, pH 7.5). The crude cell pellet was disrupted and resuspended in HIM buffer containing 2.0% wt/vol bovine serum albumin. The homogenate was ultracentrifuged to obtain the mitochondrial fraction and resuspended in 200 mmol/L sucrose, 10 mmol/L HEPES-KOH, 1 mmol/L ATP, 5 mmol/L sodium succinate, 0.08 mmol/L ADP, and 2 mmol/L K2HPO4. To assess whether BNIP3 integrates into mitochondrial membranes during hypoxia, mitochondria were subjected to alkali extraction using 0.01 mol/L Na2CO3 (pH 11.5); this will dissociate and solubilize proteins that are not membrane integrated (Vande et al, 2000; Goping et al, 1998). Antibodies directed toward the following Bcl-2 family members were obtained from respective suppliers: Bad (Transduction Laboratories Inc), Bax (Santa Cruz Inc), and Bak and Bcl-2 (Pharmingen). Bound proteins were visualized using enhanced chemiluminescence (ECL) reagents (Amersham Pharmacia Inc).
For orientation: Immunoblotting shows a protein as a band on a membrane.

T2 sequence (A0ACM8Q210 1-187): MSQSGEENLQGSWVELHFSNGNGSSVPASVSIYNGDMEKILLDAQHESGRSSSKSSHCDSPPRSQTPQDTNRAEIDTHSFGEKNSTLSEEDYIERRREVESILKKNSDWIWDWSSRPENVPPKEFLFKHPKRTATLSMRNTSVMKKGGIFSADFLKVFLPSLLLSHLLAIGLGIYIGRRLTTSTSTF
T1 sequence (Q12983 whole entry): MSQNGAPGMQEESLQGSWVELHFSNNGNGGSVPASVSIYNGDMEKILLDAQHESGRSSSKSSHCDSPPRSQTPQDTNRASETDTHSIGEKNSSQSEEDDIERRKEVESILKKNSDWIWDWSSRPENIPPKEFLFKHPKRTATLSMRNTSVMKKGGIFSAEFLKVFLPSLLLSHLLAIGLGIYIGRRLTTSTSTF

With “BNIP3ΔTM: carboxyl terminal transmembrane deletion mutant of BNIP3, deletion of amino acids 164 to 194 (amino acids 1-163)”, the “neurons surviving glutamate toxicity” value in data set [1] (glutamate 100 μM at day 9 in culture, 5 days after transfection) was determined as 68%. In addition, the “BNIP3-positive neurons showing DNA condensation / DNA damage” value in data set [1] (listed as BNIP^3-163) amounted to 17%; in data set [1] (listed as pcDNA3-BNIP3^3-163) it was 24%. Moreover, the “DiOC6 / HE staining compared to untreated controls” value in data set [2] was “not affected”. For the same substance, in data set [3], the “cell death induced by BNIP3 (propidium iodide exclusion)” value was “background levels”. Also, in data set [4], the “increase in Ac-DEVD-pNA substrate cleavage after transfection” value was “only marginal increases”. The “cytochrome c release (in words)” value in data set [5] was “no significant cytochrome c release”; in data set [6], “only very low levels”. In data set [7], the “toxicity to myocytes (viability versus control cells)” value was “not toxic”. Also, in data set [7] (hypoxia 24 hours), the “hypoxia-induced cell death of ventricular myocytes” value is listed as “markedly blunted”. The “hypoxia-induced mitochondrial integration of the endogenous BNIP3 protein” value in data set [8] is “suppressed”.
